Reference: PubChem BioAssay AID179 (DTP/NCI, 2004)
pEC50, pIC50: −log10 of the molar value. Values joined by “and” are separate entries in the source; they are usually repeats but may differ in a detail not shown here. Equal values may be shown once. Active and inactive are the calls of the source.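 The calls were made as follows: active = compounds giving half or more protection of infected cells from virus-caused growth loss, again on retest; inactive = the rest.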 Where a SMILES comes first, the peptide text is derived from it. The star is where a group is joined. Boc = CC(C)(C)OC(=O)*; OSu = O=C1CCC(=O)N1O*

Test system: CEM cells HIV-1 protection, formazan growth assay
Experiment: NCI AIDS Antiviral Assay
Conditions: for pIC50: measured here: growth of uninfected CEM cells
Method in brief: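 Screen of anti-HIV-1 activity in human CEM cells using a formazan-based growth measurement at five drug concentrations. Hits with 50% or greater protection were repeated, and confirmation required reproducible complete protection.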

SMILES	pEC50	pIC50	outcome
O=C1OCCOCCOCCOCCOC(=O)c2cccc1c2	< 3.81	< 3.81	–
O=CCCn1[nH]c(=O)ccc1=O	< 2.83	2.85	–
C=CC[C@@H](N)C(=O)N(C)[C@@H](C)[C@@H](O)c1ccccc1	< 3.70	< 3.70	–
O=C1C(=O)C(Br)(Br)C(Br)=C1Br	–	–	inactive
CC1c2[nH]c3ccccc3c2CCN1O (stereo unspecified)	–	–	inactive
O=C(/C=C/c1ccc(O)c(O)c1)O[C@H](C(=O)O)[C@H](OC(=O)/C=C/c1ccc(O)c(O)c1)C(=O)O	< 4.07	4.70	–
COc1ccc(C2Nc3ccccc3NC3CC(C)(C)CC(=O)C32)cc1 (stereo unspecified)	< 3.59	3.75	–
N#Cc1c(NC(=O)CN2CCOCC2)c(C(=O)Nc2ccccc2)n2c1CCCC2	< 3.70	< 3.70	–
CCC(=O)O[C@H](C)CC1SCCCS1	< 3.67	< 3.67	–
c1ccc2c(c1)SCC1COCOC21 (stereo unspecified)	< 3.20	3.21	–
O=C(O)c1cccc(-c2c3ccc(=O)cc-3oc3cc(O)ccc23)c1	< 3.50	4.27	–
CCn1nc2c3c(ncn3C(C)(C)O2)c1=O	< 3.70	< 3.70	–
OC1Cn2cc(Br)c[n+]2C1 (stereo unspecified)	< 3.70	< 3.70	–
N#CNC(=NCCO)NCCO	< 3.28	< 3.28	–
Cc1cc([N+](=O)[O-])c(C)c2c1[nH]c1ccc(/C(CCC3CCCC3)=N\N)cc12	< 5.00	< 5.00	–
Cc1cc(C(=O)N2CCN(Cc3ccccc3)CC2)c(C)o1	< 3.13	3.49	–
CC[N+](C)(CC)CCC(O)(c1ccccc1)c1ccccc1	< 3.70	< 3.70	–
O=C(CC(=O)Nc1ccccc1)Nc1ccccc1	< 3.99	< 3.99	–
CC1CN1c1c(C(=O)/C=C/c2ccc(F)cc2)c(-c2ccccc2)nn(C)c1=O (stereo unspecified)	< 3.92	4.96	–
CCN(CC)c1nc(=O)c(C(=O)C(C)(C)C)c(C(C)(C)C)o1	< 3.70	< 3.70	–
CN1C(=O)CC(=O)N(c2ccccc2)c2cc(Cl)ccc21	–	–	inactive
N#CCc1ccc(C(C#N)/C(CCCC(=O)Nc2cccc([N+](=O)[O-])c2)=N/NC(N)=S)cc1 (stereo unspecified)	–	–	inactive
CCCCCc1cc(CCCC)sc1-c1ccco1	< 3.70	3.84	–

SMILES	pEC50	pIC50	outcome
C=C(C)C(C)(C)n1[nH]c(=O)n(-c2ccccc2)c1=O	< 3.70	< 3.70	–
COS(=O)(=O)c1c(N)n(C)c(=O)n(C)c1=O	< 3.70	4.18	–
CN(C)CC1(C)Cc2sccc2C1=O (stereo unspecified)	< 3.70	< 3.70	–
COc1ccc2nc3n(c2c1)C(c1c(F)cccc1Cl)SC3 (stereo unspecified)	< 3.70	< 3.70	–
CC(=O)[CH-]C(C)=O.CC(=O)[CH-]C(C)=O.[CH2-]CCC.[CH2-]CCC.[Sn+4]	< 4.22	6.18	–
COc1ccc(N2C(=O)C3c4[nH]c5cc(C)ccc5c4C4CCC(C(C)(C)C)CC4C3C2=O)cc1 (stereo unspecified)	< 3.70	3.98	–
O=C(CN1C(=O)CC(c2ccccc2)(c2ccccc2)C1=O)N1CCN(CCO)CC1	< 3.70	3.82	–
O=C(O)CCc1coc2ccc(O)cc12	–	–	inactive
Cc1ccc(C)c(N2C(=O)C(=O)C(c3nc4ccccc4s3)C(=O)C2=O)c1	–	–	inactive
CCCc1cc(=O)oc2c3c(c4c(c12)OC(C)(C)CC4)O[C@H](C)[C@@H](C)[C@@H]3O	6.50	5.09	–
N/N=C(/c1ccccc1)c1cccc([N+](=O)[O-])c1	< 3.70	3.78	–
CC(O)(c1ccccc1)c1nccc2ccccc12 (stereo unspecified)	< 3.70	4.11	–
CCCCc1ccc(Nc2nc(N)c3[nH]cnc3n2)cc1	< 3.70	4.61	–
COP(C)(=O)/C(Cc1ccccc1)=N\O (stereo unspecified)	< 3.70	< 3.70	–
COC(=O)c1c(C(=O)OC)c2c(-c3ccccc3)cc3cccc1n32	< 5.09	< 5.09	–
CC(C)(C)[Si](C)(C)OCC1OC(n2ccc(=O)[nH]c2=O)C(O[Si](C)(C)C(C)(C)C)C1C/C(N)=N/O (stereo unspecified)	< 3.70	5.18 and 4.51	–
CC1(c2cccc(C3CC4(CCC3=O)OCCCCO4)c2)OCCO1 (stereo unspecified)	< 3.70	< 3.70	–
O=C(Nc1c(-c2nc3ccccc3[nH]2)sc(=S)n1-c1ccccc1)c1ccccc1	< 5.47	< 5.47	–
S=c1[nH][nH]c(=S)c2[nH]cnc12	< 3.85	< 3.85	–
CC1=N/C(=C\c2cccs2)C(=O)O1	< 3.70	< 3.70	–
CC[N+](C)(CC)CCCC(C)N1C(=O)C2CCCCC2C1=O (stereo unspecified)	< 3.70	< 3.70	–
CC(=O)O/C=C\OC1CCCC1	< 3.70	< 3.70	–
NC1CCC[C@@H](O)[C@H]1O (stereo partly specified)	< 3.70	< 3.70	–

SMILES	pEC50	pIC50	outcome
COC(=O)/C=C\C(C#N)(C#N)N=Cc1sccc1C	6.96	6.40	–
O=C1Nc2ccc(cc2)Cc2ccc(cc2)NC(=O)N2CCN(CC2)C(=O)Nc2ccc(cc2)Cc2ccc(cc2)NC(=O)N2CCN1CC2	< 4.97	< 4.97	–
COC1=CC(C)C2C[C@H]3O[C@H](O)C[C@H]4C(C)C(=O)C(O)C([C@@]2(C)C1=O)[C@@]34C (stereo partly specified)	–	–	inactive
O=[N+]([O-])CCc1cccc([N+](=O)[O-])c1	< 2.90	< 2.90	–
CCOC(=O)c1nc2ccc(C(F)(F)F)cc2nc1Nc1cc(OC)c(OC)c(OC)c1	< 3.70	< 3.70	–
COc1ccc(N2C(=O)[C@@H]3[C@@H]4CC(C)CC[C@@H]4c4c([nH]c5ccccc45)[C@@H]3C2=O)cc1 (stereo partly specified)	< 5.48	< 5.48	–
CN(C)c1ccc(-c2[nH]c(=O)c3ccccc3[n+]2C)cc1	< 3.70	4.18	–
Cc1c(C(=O)Nc2ccccc2)nnn1-c1ccnc2cc(C(F)(F)F)ccc12	< 3.70	< 3.70	–
C[N+]1(CCCl)CCc2ccc([N+](=O)[O-])cc2C1 (stereo unspecified)	< 3.70	< 3.70	–
O=C1c2ccccc2C(=O)N1n1c(Cc2ccccc2)n[nH]c1=O	< 3.70	< 3.70	–
C/C=C/C#CC#CC(O)C(/C=C/CCCO)OC1OC(COC2OC(CO)C(O)C(O)C2O)C(O)C(O)C1O (stereo unspecified)	< 3.35	< 3.35	–
c1ccc(C2ON2CCCN2OC2c2ccccc2)cc1 (stereo unspecified)	< 3.70	< 3.70	–
COc1ccc2c(c1)CC[C@@H]1C2CC[C@]2(C)C(=C=CP(=O)(O)O)CCC12 (stereo partly specified)	< 3.70	< 3.70	–
N#CCCCCC12C3C(=O)N(c4ccccc4)C(=O)C3ON1O[C@@H]1C(=O)N(c3ccccc3)C(=O)[C@@H]12 (stereo partly specified)	< 3.70	< 3.70	–
CCOC(=O)CC(C)C1(C=O)CCCCC1=O (stereo unspecified)	< 3.12	< 3.12	–
CC(C)(C)OC(=O)NC(Cc1ccc(O)cc1)C(=O)NC(CCCCN)C(=O)NC(Cc1ccc(O)cc1)C(=O)NC(CCCCN)C(=O)ON1C(=O)CCC1=O (stereo unspecified) (Boc-YKYK-OSu; configuration not given here)	< 4.00	< 4.00	–
CC(C)C(NC(=O)c1ccccc1SC(=O)CCCC[n+]1ccccc1)C(N)=O (stereo unspecified)	5.98	5.06	–
ClC1=NN=C(c2c[nH]c3ccccc23)CC1NCc1ccccc1 (stereo unspecified)	< 3.70	< 3.70	–
CS(=O)(=O)NNS(=O)(=O)c1ccc2ccccc2c1	< 3.65	< 3.65	–
CCOC(=O)N1CCc2cc(OC)c(OC)cc2/C1=C/c1ccc(OC)c(OC)c1	–	–	inactive
Cc1nnc2c3nccnc3c(Cl)nn12	< 3.70	5.63	–
COc1ccc(OC)c(NC(=O)CCC/C(CC(=O)c2ccc(O)c(OC)c2)=N\NC(=O)C[N+](C)(C)C)c1	< 5.18	< 5.18	–
O=c1ssc2ncccc12	< 3.53	< 4.00	–

SMILES	pEC50	pIC50	outcome
N#Cc1c(O)c(C=O)c(=O)n2c1[nH]c1ccccc12	< 3.70	3.77	–
COc1cc(/C=C(\C#N)c2ccc(Cl)cc2)ccc1OCc1ccccc1	< 3.70	< 3.70	–
CN(C)c1ccc(N=Nc2ccc3nc[nH]c3c2)cc1	< 3.70	4.38	–
CCN(CCO)CCNc1ccc(C)c2sc3ccccc3c(=O)c12	< 3.70	5.54	–
Nc1nc(-c2ccco2)cc(-c2ccc(CO)o2)n1	< 3.71	3.97	–
CC(NC1=NCCO1)c1cccs1 (stereo unspecified)	< 3.70	3.86	–
O=C(/C=C/c1ccsc1)c1ccco1	< 3.70	4.96	–
Cc1c(C)n2c(=O)n(-c3ccccc3)c(=O)n2c1=O	< 3.01	3.21	–
C=CC[C@@]1(C)CCCCCCCCC[C@@](C)(CC=C)C1=O	< 3.70	3.94	–
COc1ccc(CCn2cnc3ccccc32)cc1	< 3.70	< 3.70	–
CCOc1ccc(/C(C)=N/NC(N)=S)cc1	–	–	inactive
COC(=O)c1ccc(CS(=O)(=O)c2ccccc2)cc1	< 4.89	< 4.89	–
COc1ccc(C2Oc3c(cc(O)c(OC)c3C)[C@@H]2C)cc1OC (stereo partly specified)	< 4.10	4.32	–
O=C(O)c1ccccc1/C=N/NC1=NCCN1	< 3.70	4.07	–
C#CC1(O)CCC2[C@@H]3CCc4cc(Oc5nc(F)nc(-c6c(C)c(C(=O)OCC)n7ccccc67)n5)ccc4C3CC[C@@]21C (stereo partly specified)	< 4.00	< 4.00	–
CCOC(=O)CNC(=O)C(Cc1ccccc1)NC(=O)C(N)CC(=O)O (stereo not drawn) (H-Asp-Phe-Gly-OEt; configuration not given here)	< 3.70	< 3.70	–
CCN(/N=C1\CC2C=CCN(C2)C(=O)Cc2c1[nH]c1ccccc21)S(=O)(=O)c1ccc(C)cc1 (stereo unspecified)	< 4.20	4.22	–
CC(=O)CCC#Cc1ccccc1C(=O)C(C)=[N+]=[N-]	< 4.30	< 4.30	–
O=[N+]([O-])C1=C(c2ccccc2)SC([N+](=O)[O-])=C(c2ccccc2)S1	< 3.70	4.83	–
Cc1cc(C)cc(NC(=O)CCC(=O)C2CCC/C2=N\NC(=O)C(=O)NN)c1 (stereo unspecified)	< 4.17	< 4.17	–
CCNC(=S)N/N=C(/c1ccc(OC)cc1)P(=O)(OCC)OCC	< 4.30	< 4.30	–
